In assay [1] the target is T1, baculovirus-expressed ALK (Homo sapiens, UniProt Q9UM73).
T1 construct: host or cells: baculovirus expression system
In words: ALK Kinase Assay (ELISA-type, time-resolved fluorescence). The assay is classed as biochemical. The following applies: 1 μM ATP (Km level), 30 ng/ml ALK, 37° C., 15 minutes; read-out: ALK Activity (ALK kinase inhibition, IC50 class). In a few lines: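 Substrate coating: phospholipase C-γ, 10 μg/mL in TBS. Kinase step: 30 ng/ml ALK, 15 min, 37° C. Detection and analysis: Eu-N1 PT66 antibody, with IC50 fitted as a sigmoidal variable-slope dose-response curve.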

In assay [2] the target is T2, c-Met (cytoplasmic domain) (Homo sapiens, UniProt P08581).
T2 construct: 10 ng/mL c-Met (cytoplasmic domain, Invitrogen Corporation #PV3143); purchased Invitrogen Corporation PV3143
T2 sequence (P08581 956-1390 limits assumed): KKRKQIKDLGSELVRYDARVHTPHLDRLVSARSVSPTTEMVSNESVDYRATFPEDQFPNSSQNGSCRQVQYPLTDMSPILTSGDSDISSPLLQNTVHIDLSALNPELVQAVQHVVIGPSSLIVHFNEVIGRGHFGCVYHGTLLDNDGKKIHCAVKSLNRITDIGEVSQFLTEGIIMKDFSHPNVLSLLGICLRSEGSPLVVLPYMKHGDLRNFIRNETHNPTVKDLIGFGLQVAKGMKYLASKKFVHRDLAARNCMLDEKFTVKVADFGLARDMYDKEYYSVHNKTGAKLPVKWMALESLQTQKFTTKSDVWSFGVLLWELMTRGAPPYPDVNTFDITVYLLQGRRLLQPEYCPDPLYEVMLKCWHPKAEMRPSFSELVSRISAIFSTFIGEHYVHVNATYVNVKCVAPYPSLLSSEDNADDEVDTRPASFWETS
The experiment in a line: c-Met Kinase Assay (same methods as for ALK, with modifications). The class given is biochemical. The following applies: 1 μM ATP (Km level), 10 ng/mL c-Met; read-out: cMet Activity (c-Met kinase inhibition, IC50 class). In a few lines: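 This plate-based kinase format uses immobilized phospholipase C-γ as substrate, phosphorylated by c-Met cytoplasmic domain (10 ng/mL) at 37° C for 15 minutes.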

The structures appear in SMILES notation. Bounds are passed on as bounds.

Experimental findings from US8148391B2 (Cephalon, Inc., priority 2006, dated 2012) are described below.

T1 sequence (Q9UM73 19-1620): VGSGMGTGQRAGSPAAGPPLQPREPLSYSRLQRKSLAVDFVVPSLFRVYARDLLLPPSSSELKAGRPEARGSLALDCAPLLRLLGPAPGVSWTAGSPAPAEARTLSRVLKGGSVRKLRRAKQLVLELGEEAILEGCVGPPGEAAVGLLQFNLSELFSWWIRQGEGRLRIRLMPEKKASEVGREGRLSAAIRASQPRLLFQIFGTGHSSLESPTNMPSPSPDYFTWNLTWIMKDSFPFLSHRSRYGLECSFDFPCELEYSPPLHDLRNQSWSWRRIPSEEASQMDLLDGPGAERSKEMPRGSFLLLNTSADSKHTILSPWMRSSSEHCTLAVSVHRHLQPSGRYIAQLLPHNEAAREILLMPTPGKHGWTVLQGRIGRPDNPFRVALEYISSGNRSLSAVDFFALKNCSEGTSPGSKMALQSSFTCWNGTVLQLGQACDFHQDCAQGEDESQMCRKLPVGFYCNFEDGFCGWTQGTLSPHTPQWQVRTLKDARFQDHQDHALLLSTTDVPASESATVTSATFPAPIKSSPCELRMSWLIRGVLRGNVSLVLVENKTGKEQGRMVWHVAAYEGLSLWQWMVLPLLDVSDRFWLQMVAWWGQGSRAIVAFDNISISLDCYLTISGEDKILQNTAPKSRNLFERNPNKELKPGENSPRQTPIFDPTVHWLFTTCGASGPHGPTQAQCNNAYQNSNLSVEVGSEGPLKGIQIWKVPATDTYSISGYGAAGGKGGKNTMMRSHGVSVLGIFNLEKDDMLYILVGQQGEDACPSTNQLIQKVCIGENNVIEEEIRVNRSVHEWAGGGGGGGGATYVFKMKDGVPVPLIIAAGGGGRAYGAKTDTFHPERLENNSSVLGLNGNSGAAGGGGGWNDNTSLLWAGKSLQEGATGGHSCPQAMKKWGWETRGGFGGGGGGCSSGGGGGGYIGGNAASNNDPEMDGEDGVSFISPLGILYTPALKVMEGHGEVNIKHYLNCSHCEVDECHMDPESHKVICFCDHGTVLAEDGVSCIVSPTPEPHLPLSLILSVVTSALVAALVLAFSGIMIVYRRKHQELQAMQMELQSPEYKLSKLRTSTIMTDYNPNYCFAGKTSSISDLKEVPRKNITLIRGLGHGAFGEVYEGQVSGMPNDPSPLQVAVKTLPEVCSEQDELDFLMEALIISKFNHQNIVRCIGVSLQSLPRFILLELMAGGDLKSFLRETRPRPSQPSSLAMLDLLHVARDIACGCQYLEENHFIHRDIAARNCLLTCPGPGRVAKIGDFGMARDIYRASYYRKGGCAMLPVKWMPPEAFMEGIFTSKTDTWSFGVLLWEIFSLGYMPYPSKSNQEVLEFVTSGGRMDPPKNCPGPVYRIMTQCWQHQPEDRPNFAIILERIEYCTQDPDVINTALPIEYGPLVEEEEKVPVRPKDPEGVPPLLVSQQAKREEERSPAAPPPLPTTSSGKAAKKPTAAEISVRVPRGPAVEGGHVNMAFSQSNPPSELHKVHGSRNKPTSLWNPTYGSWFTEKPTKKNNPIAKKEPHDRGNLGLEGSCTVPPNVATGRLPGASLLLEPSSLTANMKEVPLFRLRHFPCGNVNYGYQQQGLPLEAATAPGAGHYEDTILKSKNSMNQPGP

`COc1ccc(Nc2nc(Nc3cc4c(cc3OC)CCN(CC(=O)N(C)C)CC4)ncc2Cl)c(OC)n1` [Example 1200, 2-{7-[5-Chloro-4-(2,6-dimethoxy-pyridin-3-ylamino)-pyrimidin-2-ylamino]-8-methoxy-1,2,4,5-tetrahydro-benzo[d]azepin-3-yl}-N,N-dimethyl-acetamide]: the IC50 in assay [1] is below 100 nM; in assay [2] it was 1000 to 10000 nM.
The matching figures for `COc1cc2c(cc1Nc1ncc(Cl)c(Nc3ccccc3S(=O)(=O)N(C)C)n1)CCN(CC(=O)N1CCC1)CC2` [Example 1201, 2-{2-[3-(2-Azetidin-1-yl-2-oxo-ethyl)-8-methoxy-2,3,4,5-tetrahydro-1H-benzo[d]azepin-7-ylamino]-5-chloro-pyrimidin-4-ylamino}-N,N-dimethyl-benzenesulfonamide]: below 100 nM and above 10000 nM.
Take `COc1cc2c(cc1Nc1ncc(Cl)c(NC3(C(=O)OC(C)C)CCCC3)n1)CCN(CC(=O)N(C)C)CC2` [Example 1202, 1-[5-Chloro-2-(3-dimethylcarbamoylmethyl-8-methoxy-2,3,4,5-tetrahydro-1H-benzo[d]azepin-7-ylamino)-pyrimidin-4-ylamino]-cyclopentanecarboxylic acid isopropyl ester]: the IC50 is 100 to 1000 nM in assay [1] and above 10000 nM in assay [2].
The like results for `COc1cc2c(cc1Nc1ncc(Cl)c(Nc3ccccc3S(=O)(=O)N3CC[C@@H](O)C3)n1)CCN(CC(=O)N(C)C)CC2` [Example 1205, 2-(7-{5-Chloro-4-[2-((R)-3-hydroxy-pyrrolidine-1-sulfonyl)-phenylamino]-pyrimidin-2-ylamino}-8-methoxy-1,2,4,5-tetrahydro-benzo[d]azepin-3-yl)-N,N-dimethyl-acetamide] were, in that order, below 100 nM and 1000 to 10000 nM.
The matching figures for `COc1cc2c(cc1Nc1ncc(Cl)c(Nc3ccccc3S(=O)(=O)N3CC[C@H](O)C3)n1)CCN(CC(=O)N(C)C)CC2` [Example 1206, 2-(7-{5-Chloro-4-[2-((S)-3-hydroxy-pyrrolidine-1-sulfonyl)-phenylamino]-pyrimidin-2-ylamino}-8-methoxy-1,2,4,5-tetrahydro-benzo[d]azepin-3-yl)-N,N-dimethyl-acetamide]: below 100 nM and 1000 to 10000 nM.
The matching figures for `COc1cc2c(cc1Nc1ncc(Cl)c(Nc3ccccc3S(=O)(=O)N(C)C)n1)CCN(C(=O)C(C)(C)N)CC2` [Example 1207, 2-{2-[3-(2-Amino-2-methyl-propionyl)-8-methoxy-2,3,4,5-tetrahydro-1H-benzo[d]azepin-7-ylamino]-5-chloro-pyrimidin-4-ylamino}-N,N-dimethyl-benzenesulfonamide]: below 100 nM and 1000 to 10000 nM.
For the compound `CNc1nc(OC)ccc1Nc1nc(Nc2cc3c(cc2OC)CCN(CC(=O)N(C)C)CC3)ncc1Cl` [Example 1208, 2-{7-[5-Chloro-4-(6-methoxy-2-methylamino-pyridin-3-ylamino)-pyrimidin-2-ylamino]-8-methoxy-1,2,4,5-tetrahydro-benzo[d]azepin-3-yl}-N,N-dimethyl-acetamide], the IC50 was below 100 nM in assay [1] and above 10000 nM in assay [2].
For the compound `CNc1nc(N2CCOCC2)ccc1Nc1nc(Nc2cc3c(cc2OC)CCN(CC(=O)N(C)C)CC3)ncc1Cl` [Example 1209, 2-{7-[5-Chloro-4-(2-methylamino-6-morpholin-4-yl-pyridin-3-ylamino)-pyrimidin-2-ylamino]-8-methoxy-1,2,4,5-tetrahydro-benzo[d]azepin-3-yl}-N,N-dimethyl-acetamide], the IC50 in assay [1] was below 100 nM; in assay [2] it was above 10000 nM.
The matching figures for `CNC(=O)c1cccc(F)c1Nc1nc(Nc2ccc3c(c2)NC(=O)CCO3)ncc1Cl` [Example 1221, 2-[5-Chloro-2-(8-oxo-6,7,8,9-tetrahydro-5-oxa-9-aza-benzocyclohepten-2-ylamino)-pyrimidin-4-ylamino]-3-fluoro-N-methyl-benzamide]: 100 to 1000 nM and below 100 nM.
The like results for `CNC(=O)c1cccc(F)c1Nc1nc(Nc2ccc3c(c2)C(=O)NCCO3)ncc1Cl` [Example 1222, 2-[5-Chloro-2-(5-oxo-2,3,4,5-tetrahydro-1,4-benzoxazepin-7-ylamino)-pyrimidin-4-ylamino]-3-fluoro-N-methyl-benzamide] were, in that order, 100 to 1000 nM and 100 to 1000 nM.
The matching figures for `CCN1C(=O)CCCc2ccc(Nc3ncc(Cl)c(Nc4cccc(CCC#N)c4)n3)cc21` [Example 1223, 3-{3-[5-Chloro-2-(1-ethyl-2-oxo-2,3,4,5-tetrahydro-1H-1-benzazepin-8-ylamino)-pyrimidin-4-ylamino]-phenyl}-propionitrile]: 100 to 1000 nM and 100 to 1000 nM.
In the case of `CNC(=O)c1cccc(F)c1Nc1nc(Nc2ccc3c(c2)CNC(=O)CCN3C(C)=O)ncc1Cl` [Example 1224, 2-[2-(1-Acetyl-4-oxo-1,2,3,4,5,6-hexahydro-benzo[b][1,5]diazocin-8-ylamino)-5-chloro-pyrimidin-4-ylamino]-3-fluoro-N-methyl-benzamide], the IC50 in assay [1] and in assay [2] was below 100 nM throughout.
For the compound `CCN1C(=O)CCCc2ccc(Nc3ncc(Cl)c(Nc4ccc(CC#N)cc4)n3)cc21` [Example 1225, {4-[5-Chloro-2-(1-ethyl-2-oxo-2,3,4,5-tetrahydro-1H-1-benzazepin-8-ylamino)-pyrimidin-4-ylamino]-phenyl}-acetonitrile], the IC50 was in the range of 100 to 1000 nM in assay [1] and 1000 to 10000 nM in assay [2].
For the compound `CCN1C(=O)CCCc2ccc(Nc3ncc(Cl)c(Nc4ccc(OCC#N)cc4)n3)cc21` [Example 1226, {4-[5-Chloro-2-(1-ethyl-2-oxo-2,3,4,5-tetrahydro-1H-1-benzazepin-8-ylamino)-pyrimidin-4-ylamino]-phenoxy}-acetonitrile], the values for the IC50 in assay [1] and in assay [2] were 100 to 1000 nM and 1000 to 10000 nM, respectively.
On to `CNC(=O)c1cccc(O)c1Nc1nc(Nc2ccc3c(c2)CCN(CCOC)CC3)ncc1Cl` [Example 1227, 2-{5-Chloro-2-[3-(2-methoxy-ethyl)-2,3,4,5-tetrahydro-1H-3-benzazepin-7-ylamino]-pyrimidin-4-ylamino}-3-hydroxy-N-methyl-benzamide], for which the IC50 in assay [1] and in assay [2] was 100 to 1000 nM each time.
Turning to `CCNC(=O)c1cccc(F)c1Nc1nc(Nc2ccc3c(c2)CNC(=O)CCN3C(C)=O)ncc1Cl` [Example 1228, 2-[2-(1-Acetyl-4-oxo-1,2,3,4,5,6-hexahydro-benzo[b][1,5]diazocin-8-ylamino)-5-chloro-pyrimidin-4-ylamino]-N-ethyl-3-fluoro-benzamide], the results for the IC50 in assay [1] and in assay [2] were 100 to 1000 nM and below 100 nM, respectively.
The matching figures for `CCN1C(=O)CCCc2ccc(Nc3ncc(Cl)c(Nc4cccc(CC#N)c4)n3)cc21` [Example 1229, {3-[5-Chloro-2-(1-ethyl-2-oxo-2,3,4,5-tetrahydro-1H-1-benzazepin-8-ylamino)-pyrimidin-4-ylamino]-phenyl}-acetonitrile]: 100 to 1000 nM and 100 to 1000 nM.
The matching figures for `CCN1C(=O)CCCc2ccc(Nc3ncc(Cl)c(Nc4ccccc4OCC#N)n3)cc21` [Example 1230, {2-[5-Chloro-2-(1-ethyl-2-oxo-2,3,4,5-tetrahydro-1H-1-benzazepin-8-ylamino)-pyrimidin-4-ylamino]-phenoxy}-acetonitrile]: below 100 nM and below 100 nM.
The matching figures for `CC(=O)N1CCC(=O)NCc2cc(Nc3ncc(Cl)c(Nc4ccccc4OCC#N)n3)ccc21` [Example 1231, {2-[2-(1-Acetyl-4-oxo-1,2,3,4,5,6-hexahydro-benzo[b][1,5]diazocin-8-ylamino)-5-chloro-pyrimidin-4-ylamino]-phenoxy}-acetonitrile]: below 100 nM and below 100 nM.
Consider `CCN1C(=O)CCCc2ccc(Nc3ncc(Cl)c(Nc4ccccc4CCC#N)n3)cc21` [Example 1232, 3-{2-[5-Chloro-2-(1-ethyl-2-oxo-2,3,4,5-tetrahydro-1H-1-benzazepin-8-ylamino)-pyrimidin-4-ylamino]-phenyl}-propionitrile], for which the IC50 lay within 100 to 1000 nM in assay [1] and 1000 to 10000 nM in assay [2].
The like results for `CC(=O)N1CCC(=O)NCc2cc(Nc3ncc(Cl)c(Nc4ccccc4CCC#N)n3)ccc21` [Example 1233, 3-{2-[2-(1-Acetyl-4-oxo-1,2,3,4,5,6-hexahydro-benzo[b][1,5]diazocin-8-ylamino)-5-chloro-pyrimidin-4-ylamino]-phenyl}-propionitrile] were, in that order, 100 to 1000 nM and 100 to 1000 nM.
The matching figures for `COc1cc(N2CCOCC2)ccc1Nc1nc(Nc2ccc3c(c2)NC(=O)CCC3(C)C)ncc1Cl` [Example 1234, 8-[5-Chloro-4-(2-methoxy-4-morpholin-4-yl-phenylamino)-pyrimidin-2-ylamino]-5,5-dimethyl-1,3,4,5-tetrahydro-1-benzazepin-2-one]: below 100 nM and 100 to 1000 nM.
The like results for `CNC(=O)c1ccc([N+](=O)[O-])cc1Nc1nc(Nc2ccc3c(c2)C(C)(C)CCC(=O)N3)ncc1Cl` [Example 1235, 2-[5-Chloro-2-(5,5-dimethyl-2-oxo-2,3,4,5-tetrahydro-1H-1-benzazepin-7-ylamino)-pyrimidin-4-ylamino]-N-methyl-4-nitro-benzamide] were, in that order, below 100 nM and 100 to 1000 nM.
